Experimental data reported in PubChem BioAssay (NCI).
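Method: 48-hour compound exposure of cells in 96-well plates, five concentrations, linear interpolation of endpoints. TGI: total growth inhibition.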

Tests used:
Experiment in all cases: growth of human tumour cells (NCI), 48 h
CCRF-CEM leukemia = system: CCRF-CEM leukemia
TK-10 renal = system: TK-10 renal
786-0 renal = system: 786-0 renal
KM12 colon = system: KM12 colon
OVCAR-8 ovarian = system: OVCAR-8 ovarian
EKVX NSCLC = system: EKVX NSCLC
M14 melanoma = system: M14 melanoma
A549 NSCLC = system: A549 NSCLC
OVCAR-3 ovarian = system: OVCAR-3 ovarian
MALME-3M melanoma = system: MALME-3M melanoma
NCI-H226 lung = system: NCI-H226 lung
SN12C renal = system: SN12C renal
SR leukemia = system: SR leukemia
K-562 leukemia = system: K-562 leukemia
HCC-2998 colon = system: HCC-2998 colon
OVCAR-5 ovarian = system: OVCAR-5 ovarian

SMILES | TGI (CCRF-CEM leukemia) | TGI (TK-10 renal) | TGI (786-0 renal) | TGI (KM12 colon) | TGI (OVCAR-8 ovarian) | TGI (EKVX NSCLC) | TGI (M14 melanoma) | TGI (A549 NSCLC) | TGI (OVCAR-3 ovarian) | TGI (MALME-3M melanoma) | TGI (NCI-H226 lung) | TGI (SN12C renal) | TGI (SR leukemia) | TGI (K-562 leukemia) | TGI (HCC-2998 colon) | TGI (OVCAR-5 ovarian)
CS(=O)(=O)NNS(=O)(=O)c1ccc(F)cc1 | > 100 µM | > 100 µM | > 100 µM | > 100 µM | > 100 µM | > 100 µM | > 100 µM | > 100 µM | > 100 µM | > 100 µM | > 100 µM | > 100 µM | > 100 µM | > 100 µM | > 100 µM | –
COc1cccc(C=O)c1[O-].COc1cccc(C=O)c1[O-].[Zn+2] | > 100 µM | > 100 µM | > 100 µM | > 100 µM | > 100 µM | > 100 µM | > 100 µM | > 100 µM | 92.6 µM | > 100 µM | > 100 µM | > 100 µM | > 100 µM | > 100 µM | > 100 µM | > 100 µM
CC(C)c1cccc(C(C)C)c1NC(=O)C(=O)C1CCC2=C(Sc3ccccc3N2)C1=O (stereo not drawn) | > 100 µM | > 100 µM | > 100 µM | > 100 µM | > 100 µM | > 100 µM | > 100 µM | > 100 µM | > 100 µM | > 100 µM | > 100 µM | > 100 µM | > 100 µM | > 100 µM | > 100 µM | > 100 µM
COC(=O)/C(=N\NC(N)=O)C(C#N)c1ccccc1 (stereo not drawn) | > 100 µM | > 100 µM | > 100 µM | > 100 µM | > 100 µM | > 100 µM | > 100 µM | > 100 µM | > 100 µM | > 100 µM | > 100 µM | > 100 µM | – | > 100 µM | > 100 µM | > 100 µM
O=C1NC(=S)NC(=O)C1=CC1CC1 | > 100 µM | > 100 µM | > 100 µM | > 100 µM | > 100 µM | > 100 µM | > 100 µM | > 100 µM | – | > 100 µM | > 100 µM | > 100 µM | > 100 µM | > 100 µM | > 100 µM | > 100 µM
CC1SC2=NC3=C(c4ccccc4C3=O)C(c3ccccc3Cl)N2C1=O (stereo not drawn) | > 100 µM | > 100 µM | > 100 µM | > 100 µM | > 100 µM | > 100 µM | > 100 µM | > 100 µM | > 100 µM | > 100 µM | > 100 µM | > 100 µM | – | > 100 µM | > 100 µM | > 100 µM
CCc1ccc(Cc2ccc(CC)c(NC(=O)C(=O)C3NC(=S)NC3=O)c2CC)c(CC)c1NC(=O)C(=O)C1NC(=S)NC1=O (stereo not drawn) | > 100 µM | > 100 µM | > 100 µM | > 100 µM | > 100 µM | > 100 µM | > 100 µM | > 100 µM | > 100 µM | > 100 µM | – | – | – | > 100 µM | > 100 µM | > 100 µM
CC(C)(CCl)NC(=O)c1cccc(C(=O)NC(C)(C)CCl)n1 | > 100 µM | > 100 µM | > 100 µM | > 100 µM | – | > 100 µM | > 100 µM | > 100 µM | > 100 µM | > 100 µM | > 100 µM | > 100 µM | > 100 µM | > 100 µM | > 100 µM | > 100 µM
Cc1cccc(N=Cc2ccc(N(CCC#N)S(=O)(=O)c3ccccc3)cc2C)c1 | > 100 µM | > 100 µM | > 100 µM | > 100 µM | > 100 µM | > 100 µM | > 100 µM | > 100 µM | > 100 µM | > 100 µM | > 100 µM | > 100 µM | – | > 100 µM | > 100 µM | > 100 µM
COC(=O)N/N=C(\C)CC(=O)Nc1cccc([N+](=O)[O-])c1 | > 100 µM | > 100 µM | > 100 µM | > 100 µM | > 100 µM | > 100 µM | > 100 µM | > 100 µM | > 100 µM | > 100 µM | > 100 µM | – | – | > 100 µM | > 100 µM | > 100 µM
CCc1cccc(C(C)CC)c1NC(=O)C(=O)Cc1nc2ccccc2o1 (stereo not drawn) | > 50 µM | > 50 µM | > 50 µM | > 50 µM | > 50 µM | > 50 µM | > 50 µM | > 50 µM | > 50 µM | > 50 µM | > 50 µM | > 50 µM | – | > 50 µM | > 50 µM | > 50 µM
COc1ccc([Se][Se]c2ccc(OC)cc2OC)c(OC)c1 | 5.29 µM | 16.3 µM | 7.78 µM | 14.6 µM | > 100 µM | – | 9.3 µM | > 100 µM | 20 µM | 33.2 µM | 7.71 µM | – | – | 7.94 µM | > 100 µM | –
CC(C)(C)OC(=O)N1CC(C)(C)N2C(=O)C3(CCCO3)C12 (stereo not drawn) | > 100 µM | > 100 µM | > 100 µM | > 100 µM | > 100 µM | > 100 µM | > 100 µM | > 100 µM | > 100 µM | > 100 µM | > 100 µM | > 100 µM | – | > 100 µM | > 100 µM | > 100 µM
O=c1[nH]nc(CNc2ccc(Cl)cc2Cl)c2ccccc12 | > 100 µM | 45.7 µM | 41.3 µM | > 100 µM | – | 85.7 µM | > 100 µM | 43.2 µM | 40.3 µM | 49.7 µM | 81.2 µM | 97 µM | > 100 µM | > 100 µM | 44.5 µM | > 100 µM
O=c1c(C(c2ccc([N+](=O)[O-])cc2)c2c(O)c3ccccc3n(-c3ccccc3)c2=O)c(O)c2ccccc2n1-c1ccccc1 | 13.4 µM | > 100 µM | 26.9 µM | 82.5 µM | 73.9 µM | 59.7 µM | – | > 100 µM | 70.5 µM | 28.8 µM | 74.8 µM | > 100 µM | 62.7 µM | > 100 µM | 29.1 µM | > 100 µM
CSc1nc(NC2OCC(OC(C)=O)C(OC(C)=O)C2OC(C)=O)c2c(n1)OCC2=O (stereo not drawn) | > 100 µM | > 100 µM | > 100 µM | > 100 µM | > 100 µM | > 100 µM | > 100 µM | > 100 µM | > 100 µM | > 100 µM | > 100 µM | > 100 µM | – | > 100 µM | > 100 µM | > 100 µM
CNS(=O)(=O)NNS(=O)(=O)c1ccc(F)cc1 | > 100 µM | – | > 100 µM | > 100 µM | > 100 µM | > 100 µM | > 100 µM | > 100 µM | > 100 µM | – | > 100 µM | – | > 100 µM | > 100 µM | – | –
COc1ccc(-c2cc(=O)c3cc(Cl)ccc3[nH]2)cc1 | > 100 µM | > 100 µM | > 100 µM | > 100 µM | > 100 µM | > 100 µM | > 100 µM | – | > 100 µM | > 100 µM | > 100 µM | > 100 µM | > 100 µM | > 100 µM | > 100 µM | > 100 µM
CCCCCCCC(=O)OC[C@H](C[As](=O)(O)O)OC(=O)CCCCCCC | 8.8 µM | – | 26.7 µM | – | 32 µM | 80.7 µM | 25.6 µM | 18.7 µM | – | 25.3 µM | 17.6 µM | 21.7 µM | 22.8 µM | 41.6 µM | 27.8 µM | –
CSc1ccc2c(cc1=O)C(NC(=O)c1ccccc1)CCc1cc(O)c(O)c(O)c1-2 (stereo not drawn) | > 100 µM | > 100 µM | > 100 µM | 27.5 µM | > 100 µM | > 100 µM | 35.7 µM | > 100 µM | 5.91 µM | > 100 µM | 45.7 µM | 44.7 µM | – | 37.2 µM | 36.2 µM | > 100 µM
O=C(O[C@H]1[C@@H]2C=CO[C@@H](OC3OC(CO)C(O)C(O)C3O)[C@@H]2[C@@]2(CO)O[C@@H]12)c1ccc(O)c(O)c1 (stereo partly drawn) | > 100 µM | > 100 µM | > 100 µM | > 100 µM | > 100 µM | > 100 µM | > 100 µM | > 100 µM | > 100 µM | > 100 µM | – | > 100 µM | – | > 100 µM | > 100 µM | > 100 µM
CN/N=C(\C(=O)Nc1ccc(C(F)(F)F)cc1[N+](=O)[O-])C(c1cnc2ccc([N+](=O)[O-])cc2n1)[N+](=O)[O-] (stereo not drawn) | > 100 µM | – | > 100 µM | > 100 µM | > 100 µM | 65.9 µM | > 100 µM | > 100 µM | > 100 µM | > 100 µM | 78.5 µM | > 100 µM | > 100 µM | > 100 µM | 84.8 µM | 79.5 µM
CCCCCCCC(=O)OCC1OC(n2cc(F)c(=O)[nH]c2=O)C(N)C(O)C1O (stereo not drawn) | > 100 µM | – | > 100 µM | > 100 µM | > 100 µM | > 100 µM | > 100 µM | > 100 µM | > 100 µM | > 100 µM | > 100 µM | > 100 µM | > 100 µM | > 100 µM | > 100 µM | > 100 µM
